According to patent publication US7563793B2, “Pyrrolo[1,2-a]quinoxalin-5-(4H)-yl)sulfonyls and carbonyls and their use as estrogenic agents” (Wyeth, priority 2004, dated 2009):
Like-named read-outs stand apart in the source and are kept apart here.

Key:
ER/Nf-kB = assay: ER/NF-κB luciferase reporter assay in Ad5-wt-ER infected HAECT-1 cells (IL-1β induced); type: cell-based, human; conditions: for ER/Nf-kB Efficacy: relative to maximal inhibition observed with E2
Description: (§1) After four hours, cells were washed with EBM-BSA and incubated overnight in the same medium. […] After two hours, cells were washed and incubated at 34° C. for 1 hour. […] Control (no ER infection) cells were processed as above without Ad5-wt-hERα virus infection. […] Cells were subsequently washed with 300 μl of Dulbecco's phosphate buffered saline and lysed in 50 μl of Cell Culture Lysis Reagent (Promega). Luciferase was determined on a Wallac Victor^2 Luminometer (Gaithersburg, Md.) using 10 μl of lysate and mixing with 100 lμof Promega Luciferase Assay reagent. […] For IC50 and EC50 calculations, mean IL-6, luciferase or CK values versus log10 of the compound concentration were fitted to a four parameter logistic equation. The IC50/EC50 value, ‘Hill slope’, upper and lower limits of the curve were iteratively estimated.

creatine kinase = assay: Creatine kinase assay in Ad5-wt-ER infected HAECT-1 cells; type: cell-based, human; conditions: for CK Efficacy: relative to maximal stimulation observed with E2
Description: as §1

Row | Structure (SMILES) | melting point | IC50 (ER/Nf-kB; Homo sapiens, HAECT1) | EC50 (creatine kinase; Homo sapiens, HAECT1, CK stimulation, N/O = activity not observed at concentrations tested, read-out: CK IC50) | IC50 (ER/Nf-kB) | ER/Nf-kB Efficacy (ER/Nf-kB) | CK Efficacy (creatine kinase) | Emax (creatine kinase; Homo sapiens, HAECT1, relative to maximal stimulation observed with E2, read-out: CK Efficacy)
1 | CCC1c2cccn2-c2cc(F)c(F)cc2N1S(=O)(=O)c1ccc(O)c(C)c1 (stereo not shown) [Example 5, 4-[(4-ethyl-7,8-difluoropyrrolo[1,2-a]quinoxalin-5-(4H)-yl)sulfonyl]-2-methylphenol] |  |  |  | 82 nM | 99% | 37% | 
2 | CCC1c2cccn2-c2cc(F)c(F)cc2N1S(=O)(=O)c1ccc(O)cc1 (stereo not shown) [Example 7, 4-[(4-ethyl-7,8-difluoropyrrolo[1,2-a]quinoxalin-5-(4H)-yl)sulfonyl]phenol] |  |  |  | 26 nM | 113% | 37% | 
3 | CC1c2cccn2-c2cc(F)c(F)cc2N1S(=O)(=O)c1ccc(O)cc1 (stereo not shown) [Example 10, 4-[(7,8-difluoro-4-methylpyrrolo[1,2-a]quinoxalin-5-(4H)-yl)sulfonyl]phenol] |  |  |  | 14 nM | 97% | 39% | 
4 | CCC1c2cccn2-c2ccc(F)cc2N1S(=O)(=O)c1ccc(O)c(C)c1 (stereo not shown) [Example 19, 4-[(4-ethyl-7-fluoropyrrolo[1,2-a]quinoxalin-5-(4H)-yl)sulfonyl]-2-methylphenol] |  |  |  | 34 nM | 94% | 52% | 
5 | CCC1c2cccn2-c2ccc(F)cc2N1S(=O)(=O)c1ccc(O)cc1 (stereo not shown) [Example 21, 4-[(4-ethyl-7-fluoropyrrolo[1,2-a]quinoxalin-5-(4H)-yl)sulfonyl]phenol] |  |  |  | 71 nM | 97% | 38% | 
6 | CCC1c2ccc(F)n2-c2ccc(F)cc2N1S(=O)(=O)c1ccc(O)c(C)c1 (stereo not shown) [Example 28, 4-[(4-ethyl-1,7-difluoropyrrolo[1,2-a]quinoxalin-5-(4H)-yl)sulfonyl]-2-methylphenol] |  |  |  | 52 nM | 105% | 45% | 
7 | CCC1c2ccc(Br)n2-c2ccc(F)cc2N1S(=O)(=O)c1ccc(O)c(C)c1 (stereo not shown) [Example 29, 4-[(1-bromo-4-ethyl-7-fluoropyrrolo[1,2-a]quinoxalin-5-(4H)-yl)sulfonyl]-2-methylphenol] |  |  |  | 587 nM | 100% | 28% | 
8 | CCC1c2cccn2-c2ccc(F)cc2N1S(=O)(=O)c1cc(C)c(O)c(C)c1 (stereo not shown) [Example 38, 4-[(4-ethyl-7-fluoropyrrolo[1,2-a]quinoxalin-5-(4H)-yl)sulfonyl]-2,6-dimethylphenol] |  |  |  | 201 nM | 109% | 38% | 
9 | CC1(C)c2cccn2-c2ccc(Br)cc2N1S(=O)(=O)c1ccc(O)cc1 [Example 41, 4-[(7-bromo-4,4-dimethylpyrrolo[1,2-a]quinoxalin-5-(4H)-yl)sulfonyl]phenol] |  |  |  | 217 nM | 109% | 35% | 
10 | CCC1c2cccn2-c2ccc(Br)cc2N1S(=O)(=O)c1ccc(O)cc1 (stereo not shown) [Example 44, 4-[(7-bromo-4-ethylpyrrolo[1,2-a]quinoxalin-5-(4H)-yl)sulfonyl]phenol] |  |  |  | 42 nM | 97% | 51% | 
11 | CCC1c2ccc(F)n2-c2ccc(Br)cc2N1S(=O)(=O)c1ccc(O)cc1 (stereo not shown) [Example 45, 4-[(7-bromo-4-ethyl-1-fluoropyrrolo[1,2-a]quinoxalin-5-(4H)-yl)sulfonyl]phenol] |  |  |  | 12 nM | 95% | 53% | 
12 | CCC1c2cccn2-c2ccc(Br)cc2N1S(=O)(=O)c1ccc(O)c(C)c1 (stereo not shown) [Example 46, 4-[(7-bromo-4-ethylpyrrolo[1,2-a]quinoxalin-5-(4H)-yl)sulfonyl]-2-methylphenol] |  |  |  | 62 nM | 108% | 43% | 
13 | CC1c2cccn2-c2ccc(F)cc2N1S(=O)(=O)c1ccc(O)cc1 (stereo not shown) [Example 49, 4-[(7-fluoro-4-methylpyrrolo[1,2-a]quinoxalin-5-(4H)-yl)sulfonyl]phenol] |  |  |  | 67 nM | 85% | 19% | 
14 | CCC1c2cccn2-c2ccc(C(F)(F)F)cc2N1S(=O)(=O)c1ccc(O)c(C)c1 (stereo not shown) [Example 58, 4-{[4-ethyl-7-(trifluoromethyl)pyrrolo[1,2-a]quinoxalin-5-(4H)-yl]sulfonyl}-2-methylphenol] |  |  |  | 85 nM | 132% | 42% | 
15 | CCC1c2cccn2-c2ccc(C(F)(F)F)cc2N1S(=O)(=O)c1ccc(O)c(Cl)c1 (stereo not shown) [Example 61, 2-chloro-4-{[4-ethyl-7-(trifluoromethyl)pyrrolo[1,2-a]quinoxalin-5-(4H)-yl]sulfonyl}phenol] |  |  |  | 10000 nM | 69% | 15% | 
16 | CCC1c2cccn2-c2ccccc2N1S(=O)(=O)c1ccc(O)c(C)c1 (stereo not shown) [Example 64, 4-[(4-ethylpyrrolo[1,2-a]quinoxalin-5-(4H)-yl)sulfonyl]-2-methylphenol] |  |  |  | 202 nM | 89% |  | 
17 | CCOC(=O)Oc1ccc(S(=O)(=O)N2c3c(C)cccc3-n3cccc3C2CC)cc1 (stereo not shown) [Example 66, ethyl 4-[(4-ethyl-6-methylpyrrolo[1,2-a]quinoxalin-5-(4H)-yl)sulfonyl]phenyl carbonate] |  |  |  | 320 nM | 98% |  | 
18 | CCC1c2cccn2-c2ccc(Cl)cc2N1S(=O)(=O)c1ccc(O)c(C)c1 (stereo not shown) [Example 68A, 4-[(7-chloro-4-ethylpyrrolo[1,2-a]quinoxalin-5-(4H)-yl)sulfonyl]-2-methylphenol] |  |  |  | 93 nM | 105% | 49% | 
19 | CCOC(=O)Oc1ccc(S(=O)(=O)N2c3ccc(Cl)cc3-n3cccc3C2CC)cc1 (stereo not shown) [Example 70, 4-[(8-chloro-4-ethylpyrrolo[1,2-a]quinoxalin-5-(4H)-yl)sulfonyl]phenyl ethyl carbonate] |  |  |  | 150 nM | 98% | 45% | 
20 | CCC1c2cccn2-c2cc(Cl)ccc2N1S(=O)(=O)c1ccc(O)cc1 (stereo not shown) [Example 71, 4-[(8-chloro-4-ethylpyrrolo[1,2-a]quinoxalin-5-(4H)-yl)sulfonyl]phenol] |  |  |  | 175 nM | 101% | 34% | 
21 | CCC1c2cccn2-c2cc(OC)c(F)cc2N1S(=O)(=O)c1ccc(O)cc1 (stereo not shown) [Example 75, 4-[(4-ethyl-7-fluoro-8-methoxypyrrolo[1,2-a]quinoxalin-5-(4H)-yl)sulfonyl]phenol] |  |  |  | 36 nM | 84% | 46% | 

Now from value to molecule, other results behind:

Row | melting point | IC50 (ER/Nf-kB; Homo sapiens, HAECT1) | EC50 (creatine kinase; Homo sapiens, HAECT1, CK stimulation, N/O = activity not observed at concentrations tested, read-out: CK IC50) | Structure (SMILES) | IC50 (ER/Nf-kB) | ER/Nf-kB Efficacy (ER/Nf-kB) | CK Efficacy (creatine kinase) | Emax (creatine kinase; Homo sapiens, HAECT1, relative to maximal stimulation observed with E2, read-out: CK Efficacy)
22 | 192 to 194 °C |  |  | CCC1c2ccc(C=O)n2-c2ccc(F)cc2N1S(=O)(=O)c1ccc(O)c(C)c1 (stereo not shown) [Example 25, 4-ethyl-7-fluoro-5-[(4-hydroxy-3-methylphenyl)sulfonyl]-4,5-dihydropyrrolo[1,2-a]quinoxaline-1-carboxaldehyde] |  |  |  | 
23 | 168 to 170 °C (dec.) |  |  | CCC1c2ccc(C(N)=O)n2-c2ccc(F)cc2N1S(=O)(=O)c1ccc(O)cc1 (stereo not shown) [Example 36, 4-ethyl-7-fluoro-5-[(4-hydroxyphenyl)sulfonyl]-4,5-dihydropyrrolo[1,2-a]quinoxaline-1-carboxamide] |  |  |  | 
24 |  | 1.7 nM | 5.8 nM | C[C@]12CC[C@@H]3c4ccc(O)cc4CC[C@H]3[C@@H]1CC[C@@H]2O [Example E2, 17β-estradiol, reference compound] |  | 100% |  | 100%
